Laboratory results as given in patent publication US11911386B2, “Methods of treating B-cell proliferative disorder” (BeiGene Switzerland GmbH, priority 2022, dated 2024).
Where “and” joins values, the source holds several entries; their conditions need not be identical. Identical values can stand only once. Like-named read-outs stand apart in the source and are kept apart here.

## C=CC(=O)N1CCC([C@@H]2CCNc3c(C(N)=O)c(-c4ccc(Oc5ccccc5)cc4)nn32)CC1 [zanubrutinib, (S)-7-(1-acryloylpiperidin-4-yl)-2-(4-phenoxyphenyl)-4,5,6,7-tetrahydropyrazolo[1,5-a]pyrimidine-3-carboxamide]
After Coadministration
  Anemia AESI ≥Grade 3, EAIR: 0.18 per 100 person-months
  Anemia AESI, EAIR: 0.53 per 100 person-months
  Atrial fibrillation PT: 2.8%
  Atrial fibrillation and flutter AESI Grade ≥3, EAIR: 0.18 per 100 person-months
  Atrial fibrillation and flutter AESI Grade ≥3, patients: 3.7%
  Atrial fibrillation and flutter AESI, EAIR: 0.23 per 100 person-months
  Atrial fibrillation and flutter AESI, patients: 4.7%
  Atrial flutter PT: 1.9%
  Basal cell carcinoma: 5.6%
  Basal cell carcinoma leading to dose interruption: 1 (0.9%) n (%)
  Basal cell carcinoma ≥Grade 3: 1 (0.9%) n (%)
  External ear neoplasm malignant leading to dose interruption: 0 (0.0%) n (%)
  Febrile neutropenia PT: 3.7%
  Grade 3 or higher AESI: 48 (44.9) n (%)
  Haematuria (hemorrhage AESI): 4.7%
  Haematuria (major hemorrhage): 0 (0.0%) n (%)
  Haematuria (major hemorrhage) ≥Grade 3: 0 (0.0%) n (%)
  Haematuria leading to dose interruption: 0.0%
  Haematuria ≥Grade 3: 0 (0.0%) n (%)
  Hemorrhage AESI leading to dose interruption: 2.8%
  Hemorrhage AESI leading to dose reduction: 0.9%
  Hemorrhage AESI ≥Grade 3, EAIR: 0.09 per 100 person-months
  Hemorrhage AESI ≥Grade 3, patients: 1.9%
  Hemorrhage AESI, EAIR: 1.39 per 100 person-months
  Hemorrhage AESI, patients: 23.4%
  Hypertension AESI ≥Grade 3, EAIR: 0.18 per 100 person-months
  Hypertension AESI ≥Grade 3, patients: 3.7%
  Hypertension AESI, EAIR: 0.37 per 100 person-months
  Hypertension AESI, patients: 7.5%
  Infection AESI leading to dose reduction: 1.9%
  Infection AESI leading to treatment discontinuation: 3.7%
  Infection AESI ≥Grade 3, EAIR: 1.45 per 100 person-months
  Infection AESI, EAIR: 9.70 per 100 person-months
  Major hemorrhage AESI leading to dose interruption: 0.9%
  Major hemorrhage AESI ≥Grade 3, EAIR: 0.09 per 100 person-months
  Major hemorrhage AESI ≥Grade 3, patients: 1.9%
  Major hemorrhage AESI, EAIR: 0.09 per 100 person-months
  Major hemorrhage AESI, patients: 1.9%
  Malignant melanoma: 1 (0.9%) n (%)
  Neutropenia AESI leading to dose reduction: 1.9%
  Neutropenia AESI leading to treatment interruption: 6.5%
  Neutropenia AESI ≥Grade 3, EAIR: 0.63 per 100 person-months
  Neutropenia AESI ≥Grade 3, patients: 20.1%
  Neutropenia AESI, EAIR: 0.92 per 100 person-months
  Neutropenia AESI, patients: 16.8%
  Neutropenic sepsis PT: 0.0%
  Neutropenic sepsis ≥Grade 3: 0.0%
  Neutrophil count decreased leading to dose reduction: 0.0%
  Opportunistic infection AESI leading to dose reduction: 0.9%
  Opportunistic infection AESI leading to treatment discontinuation: 0.9%
  Opportunistic infection AESI ≥Grade 3, EAIR: 0.04 per 100 person-months
  Opportunistic infection AESI ≥Grade 3, patients: 1 (0.9%) n (%)
  Opportunistic infection AESI, EAIR: 0.13 per 100 person-months
  Opportunistic infection AESI, patients: 2.8%
  Opportunistic infection SAEs, EAIR: 0.04 per 100 person-months
  Patients with at least 1 AESI: 89 (83.2) n (%)
  Petechiae (hemorrhage AESI): 0.0%
  Platelet count decreased PT: 4.7%
  Platelet count decreased ≥Grade 3: 0.9%
  Purpura (hemorrhage AESI): 0.0%
  SAEs of opportunistic infections, patients: 0.9% and 2.8%
  Second primary malignancies AESI leading to dose interruption: 5.6%
  Second primary malignancies AESI leading to treatment discontinuation: 2.8%
  Second primary malignancies AESI ≥Grade 3, EAIR: 0.27 per 100 person-months
  Second primary malignancies AESI ≥Grade 3, patients: 5.6%
  Second primary malignancies AESI, EAIR: 0.60 per 100 person-months
  Second primary malignancies AESI, patients: 12.1%
  Serious anemia AESI, EAIR: 0.04 per 100 person-months
  Serious atrial fibrillation and flutter AESI, EAIR: 0.09 per 100 person-months
  Serious atrial fibrillation and flutter AESI, patients: 1.9%
  Serious external ear neoplasm malignant: 0 (0.0%) n (%)
  Serious haematuria: 0 (0.0%) n (%)
  Serious haematuria (major hemorrhage): 0 (0.0%) n (%)
  Serious hemorrhage AESI, EAIR: 0.09 per 100 person-months
  Serious hemorrhage AESI, patients: 1.9%
  Serious infection AESI, EAIR: 1.15 per 100 person-months
  Serious major hemorrhage AESI, EAIR: 0.09 per 100 person-months
  Serious major hemorrhage AESI, patients: 1.9%
  Serious neutropenia AESI, EAIR: 0.18 per 100 person-months
  Serious neutropenia AESI, patients: 3.7%
  Serious neutropenic sepsis: 0%
  Serious neutrophil count decreased: 0.0%
  Serious second primary malignancies AESI, EAIR: 0.13 per 100 person-months
  Serious second primary malignancies AESI, patients: 2.8%
  Serious squamous cell carcinoma of skin: 0 (0.0%) n (%)
  Skin cancer AESI ≥Grade 3, EAIR: 0.13 per 100 person-months
  Skin cancer AESI, EAIR: 0.41 per 100 person-months
  Skin cancer AESI, patients: 8.4%
  Skin cancer SAE, EAIR: 0.04 per 100 person-months
  Squamous cell carcinoma of skin: 0.9%
  Squamous cell carcinoma of skin ≥Grade 3: 1 (0.9%) n (%)
  Thrombocytopenia AESI leading to dose interruption: 0.0%
  Thrombocytopenia AESI ≥Grade 3, EAIR: 0.13 per 100 person-months
  Thrombocytopenia AESI ≥Grade 3, patients: 2.8%
  Thrombocytopenia AESI, EAIR: 0.41 per 100 person-months
  Thrombocytopenia AESI, patients: 8.4%
  Thrombocytopenia PT: 3.7%
During Coadministration
  Anemia AESI ≥Grade 3, EAIR: 1.70 per 100 person-months
  Anemia AESI, EAIR: 1.91 per 100 person-months
  Atrial fibrillation PT: 1.4%
  Atrial fibrillation and flutter AESI Grade ≥3, EAIR: 0.33 per 100 person-months
  Atrial fibrillation and flutter AESI Grade ≥3, patients: 1.4%
  Atrial fibrillation and flutter AESI, EAIR: 0.33 per 100 person-months
  Atrial fibrillation and flutter AESI, patients: 1.4%
  Atrial flutter PT: 0.0%
  Basal cell carcinoma: 0.0%
  Basal cell carcinoma leading to dose interruption: 0 (0.0%) n (%)
  Basal cell carcinoma ≥Grade 3: 0 (0.0%) n (%)
  Epistaxis (hemorrhage AESI): 1.4%
  External ear neoplasm malignant leading to dose interruption: 1 (0.7%) n (%)
  Febrile neutropenia PT: 2.9%
  Grade 3 or higher AESI: 36 (26.1) n (%)
  Haematuria (hemorrhage AESI): 1.4%
  Haematuria (major hemorrhage): 0 (0.0%) n (%)
  Haematuria (major hemorrhage) ≥Grade 3: 0 (0.0%) n (%)
  Haematuria leading to dose interruption: 0 (0.0%) n (%)
  Haematuria ≥Grade 3: 0 (0.0%) n (%)
  Hemorrhage AESI leading to dose interruption: 0.7%
  Hemorrhage AESI ≥Grade 3, EAIR: 0.16 per 100 person-months
  Hemorrhage AESI ≥Grade 3, patients: 0.7%
  Hemorrhage AESI, EAIR: 4.04 per 100 person-months
  Hemorrhage AESI, patients: 14.5%
  Herpes zoster: 2.2%
  Hypertension AESI ≥Grade 3, EAIR: 0.17 per 100 person-months
  Hypertension AESI ≥Grade 3, patients: 0.7%
  Hypertension AESI, EAIR: 0.70 per 100 person-months
  Hypertension AESI, patients: 2.9%
  Infection AESI leading to dose reduction: 1.4%
  Infection AESI leading to treatment discontinuation: 4.3%
  Infection AESI ≥Grade 3, EAIR: 5.83 per 100 person-months
  Infection AESI, EAIR: 16.79 per 100 person-months
  Major hemorrhage AESI leading to dose interruption: 0.7%
  Major hemorrhage AESI ≥Grade 3, EAIR: 0.16 per 100 person-months
  Major hemorrhage AESI ≥Grade 3, patients: 0.7%
  Major hemorrhage AESI, EAIR: 0.16 per 100 person-months
  Major hemorrhage AESI, patients: 0.7%
  Malignant melanoma: 0 (0.0%) n (%)
  Neutropenia AESI leading to dose reduction: 0.0%
  Neutropenia AESI leading to treatment interruption: 7.2%
  Neutropenia AESI ≥Grade 3, EAIR: 3.72 per 100 person-months
  Neutropenia AESI ≥Grade 3, patients: 12.3%
  Neutropenia AESI, EAIR: 5.43 per 100 person-months
  Neutropenia AESI, patients: 17.4%
  Neutropenic sepsis PT: 0.0%
  Neutropenic sepsis ≥Grade 3: 0.0%
  Neutrophil count decreased leading to dose reduction: 0.0%
  Opportunistic infection AESI leading to dose reduction: 0.7%
  Opportunistic infection AESI leading to treatment discontinuation: 0.7%
  Opportunistic infection AESI ≥Grade 3, EAIR: 0.50 per 100 person-months
  Opportunistic infection AESI ≥Grade 3, patients: 3 (2.2%) n (%)
